According to patent US10328069B2, “Phosphatidylinositol 3-kinase inhibitors for the treatment of lymphoproliferative malignancies” (Exelixis, Inc., priority 2011, dated 2019):
Marks after values point to notes of the source that are not given here.

Experiments:
[1] = system: downstream effectors of PI3K; assay: Preclinical xenograft model studies: phosphorylation of downstream effectors of PI3K; type: in vivo; conditions: preclinical xenograft models, well-tolerated doses
xenograft tumor = assay: Preclinical xenograft model studies: tumor growth; type: in vivo; conditions: preclinical xenograft models, well-tolerated doses
[2] = system: downstream targets of PI3K, including pAKT and pEBP1; assay: Phosphorylation of downstream targets of PI3K in vitro and in vivo
[3] = Phase 1 trial, lymphoma/CLL expansion cohort: safety and tolerability; type: in vivo, human
[4] = system: relapsed/refractory lymphoma and CLL; assay: Phase 1 trial, lymphoma/CLL expansion cohort: best response; type: in vivo, human
Procedure: As part of a phase 1 single agent study in solid tumors, we administered Compound A to a dedicated expansion cohort of patients with relapsed/refractory lymphoma and CLL. The drug was administered orally daily, with continuous dosing in monthly cycles. A total of 15 patients were enrolled at three centers. An initial cohort of 3 patients was enrolled, followed by a safety review, with subsequent enrollment of the remaining 12 subjects. The median age of the patients was 66 years (range 28-81), 40% were male and 60% female.
This was a Phase 1, open-label, non-randomized trial of Compound A given orally as a single agent in subjects with lymphoma.
The key eligibility include the following: • Histologically confirmed diagnosis of relapsed or refractory lymphoma • Measureable disease • Adequate bone marrow function defined as: • ANC≥1000/mm^3 (CLL with ALC≥100,000/mm^3 required to have ANC≥500/mm^3) • Platelets≥30,000/mm^3 • Hemoglobin≥8 g/dL • Archival or fresh tumor tissue • No prior therapy with a selective PI3K inhibitor • Written informed consent. Results

[5] = Phase 1 trial, lymphoma/CLL expansion cohort: plasma pharmacokinetics; type: in vivo, human; conditions: 600 mg oral daily, cycle 1, eight patients
Source text: The secondary objectives were to determine (a) the plasma pharmacokinetics of Compound A; and (b) the pharmacodynamic effects of Compound A on tumor tissue.
There was inter-patient variability, and the geometric mean was 7.6 fold.

PI3K pathway = assay: Phase 1 study in patients with solid tumors: pharmacodynamics in surrogate and tumor tissue; type: in vivo, human
Procedure: (§1) The maximum tolerated dose (MTD) was defined as 600 mg (capsule) once daily (QD) on either a 21/7 (administered continuously for 21 days followed by 7 days rest) or a continuous daily dosing schedule. […] A dose-escalation study of a tablet formulation is ongoing. Ten additional patients have been enrolled in the expansion cohort to better define the activity of Compound A, and further studies are warranted.

[6] = Phase 1 study in solid tumors: maximum tolerated dose and dose-limiting toxicities; type: in vivo
Procedure: as §1

class I PI3K isoform β = class I PI3K isoform β (Homo sapiens, UniProt P42338); conditions: read-out: IC50 PI3K β
class I PI3K isoform γ = class I PI3K isoform γ (Homo sapiens, UniProt P48736); conditions: read-out: IC50 PI3K γ
class I PI3K isoform δ = class I PI3K isoform δ (Homo sapiens, UniProt O00329); conditions: read-out: IC50 PI3K δ
mTOR = mTOR (Homo sapiens, UniProt P42345); conditions: read-out: IC50 mTOR
[7] = nineteen subjects, 600 mg capsule daily
[8] = nineteen subjects, unrelated to study drug
[9] = Hodgkin Lymphoma, n = 2 evaluated

Chain of class I PI3K isoform γ (P48736 whole entry, canonical isoform): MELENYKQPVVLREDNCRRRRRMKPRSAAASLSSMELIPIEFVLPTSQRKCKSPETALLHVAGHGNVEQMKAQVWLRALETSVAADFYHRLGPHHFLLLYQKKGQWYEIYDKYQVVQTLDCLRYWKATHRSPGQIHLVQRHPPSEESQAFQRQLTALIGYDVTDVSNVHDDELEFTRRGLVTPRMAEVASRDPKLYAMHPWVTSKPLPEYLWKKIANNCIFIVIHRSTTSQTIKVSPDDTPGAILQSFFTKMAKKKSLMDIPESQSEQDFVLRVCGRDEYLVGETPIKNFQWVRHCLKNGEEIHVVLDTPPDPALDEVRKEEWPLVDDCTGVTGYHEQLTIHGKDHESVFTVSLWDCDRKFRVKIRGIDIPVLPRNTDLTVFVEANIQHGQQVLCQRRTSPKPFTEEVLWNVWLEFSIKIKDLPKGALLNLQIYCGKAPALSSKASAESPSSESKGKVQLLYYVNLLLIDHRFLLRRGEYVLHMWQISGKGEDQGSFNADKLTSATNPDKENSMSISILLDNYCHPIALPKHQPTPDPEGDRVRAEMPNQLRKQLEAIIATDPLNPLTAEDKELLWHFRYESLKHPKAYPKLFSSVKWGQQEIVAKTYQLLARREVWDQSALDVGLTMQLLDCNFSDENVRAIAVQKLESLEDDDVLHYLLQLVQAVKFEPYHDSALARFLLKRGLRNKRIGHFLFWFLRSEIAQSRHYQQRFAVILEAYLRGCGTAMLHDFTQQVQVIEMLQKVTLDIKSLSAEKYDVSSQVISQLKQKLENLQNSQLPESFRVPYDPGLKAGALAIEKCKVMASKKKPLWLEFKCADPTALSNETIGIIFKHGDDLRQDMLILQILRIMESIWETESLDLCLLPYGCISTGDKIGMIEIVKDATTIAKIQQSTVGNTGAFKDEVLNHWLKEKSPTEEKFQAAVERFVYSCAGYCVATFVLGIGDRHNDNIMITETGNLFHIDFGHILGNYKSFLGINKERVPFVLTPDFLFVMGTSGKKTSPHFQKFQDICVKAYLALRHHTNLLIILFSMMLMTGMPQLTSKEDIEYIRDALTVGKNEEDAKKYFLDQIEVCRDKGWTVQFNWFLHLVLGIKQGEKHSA
Chain of class I PI3K isoform δ (O00329 whole entry, canonical isoform): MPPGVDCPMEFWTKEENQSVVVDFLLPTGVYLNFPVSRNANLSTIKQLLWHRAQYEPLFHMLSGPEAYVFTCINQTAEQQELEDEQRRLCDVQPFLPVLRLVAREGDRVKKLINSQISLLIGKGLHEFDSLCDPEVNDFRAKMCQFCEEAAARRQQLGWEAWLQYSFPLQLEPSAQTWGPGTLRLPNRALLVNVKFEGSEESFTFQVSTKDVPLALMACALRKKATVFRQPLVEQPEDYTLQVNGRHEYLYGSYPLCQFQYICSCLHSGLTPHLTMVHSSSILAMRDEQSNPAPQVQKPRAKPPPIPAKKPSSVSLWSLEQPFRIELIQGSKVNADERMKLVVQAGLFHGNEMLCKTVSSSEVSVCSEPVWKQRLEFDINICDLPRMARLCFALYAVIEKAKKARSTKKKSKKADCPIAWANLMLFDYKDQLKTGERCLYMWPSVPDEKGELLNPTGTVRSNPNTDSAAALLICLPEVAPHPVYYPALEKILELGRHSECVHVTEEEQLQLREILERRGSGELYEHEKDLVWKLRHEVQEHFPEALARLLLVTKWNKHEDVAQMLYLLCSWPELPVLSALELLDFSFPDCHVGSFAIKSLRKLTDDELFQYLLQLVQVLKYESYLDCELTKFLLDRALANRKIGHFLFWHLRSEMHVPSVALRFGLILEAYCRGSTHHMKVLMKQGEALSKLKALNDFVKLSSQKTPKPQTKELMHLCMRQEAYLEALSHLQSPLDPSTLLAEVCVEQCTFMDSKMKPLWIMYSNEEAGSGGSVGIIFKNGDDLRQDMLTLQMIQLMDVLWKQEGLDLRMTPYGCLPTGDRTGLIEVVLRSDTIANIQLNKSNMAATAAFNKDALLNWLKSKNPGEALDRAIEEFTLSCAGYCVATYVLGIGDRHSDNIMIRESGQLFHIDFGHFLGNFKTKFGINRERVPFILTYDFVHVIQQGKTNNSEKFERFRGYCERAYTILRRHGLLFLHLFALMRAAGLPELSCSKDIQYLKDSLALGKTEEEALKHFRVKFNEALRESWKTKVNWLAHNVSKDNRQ
Chain of class I PI3K isoform δ (P27986 whole entry partner, canonical isoform): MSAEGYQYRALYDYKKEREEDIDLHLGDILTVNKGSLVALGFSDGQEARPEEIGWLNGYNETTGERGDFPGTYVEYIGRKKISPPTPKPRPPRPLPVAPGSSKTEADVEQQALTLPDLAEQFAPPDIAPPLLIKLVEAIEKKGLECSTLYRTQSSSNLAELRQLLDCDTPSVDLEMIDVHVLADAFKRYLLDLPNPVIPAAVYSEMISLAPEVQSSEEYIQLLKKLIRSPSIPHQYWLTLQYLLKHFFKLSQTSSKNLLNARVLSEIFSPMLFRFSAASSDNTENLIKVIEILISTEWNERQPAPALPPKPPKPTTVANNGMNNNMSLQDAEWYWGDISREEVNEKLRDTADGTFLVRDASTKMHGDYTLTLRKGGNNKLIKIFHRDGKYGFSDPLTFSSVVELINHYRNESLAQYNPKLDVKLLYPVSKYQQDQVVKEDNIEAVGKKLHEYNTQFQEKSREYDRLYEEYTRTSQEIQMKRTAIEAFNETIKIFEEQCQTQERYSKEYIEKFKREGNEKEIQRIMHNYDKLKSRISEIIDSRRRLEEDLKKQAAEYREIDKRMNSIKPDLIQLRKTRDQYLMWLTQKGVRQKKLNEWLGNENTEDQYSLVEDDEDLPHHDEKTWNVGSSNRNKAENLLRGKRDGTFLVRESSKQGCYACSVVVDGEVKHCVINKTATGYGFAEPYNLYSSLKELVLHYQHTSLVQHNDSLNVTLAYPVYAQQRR
Chain of class I PI3K isoform β (P42338 whole entry, canonical isoform): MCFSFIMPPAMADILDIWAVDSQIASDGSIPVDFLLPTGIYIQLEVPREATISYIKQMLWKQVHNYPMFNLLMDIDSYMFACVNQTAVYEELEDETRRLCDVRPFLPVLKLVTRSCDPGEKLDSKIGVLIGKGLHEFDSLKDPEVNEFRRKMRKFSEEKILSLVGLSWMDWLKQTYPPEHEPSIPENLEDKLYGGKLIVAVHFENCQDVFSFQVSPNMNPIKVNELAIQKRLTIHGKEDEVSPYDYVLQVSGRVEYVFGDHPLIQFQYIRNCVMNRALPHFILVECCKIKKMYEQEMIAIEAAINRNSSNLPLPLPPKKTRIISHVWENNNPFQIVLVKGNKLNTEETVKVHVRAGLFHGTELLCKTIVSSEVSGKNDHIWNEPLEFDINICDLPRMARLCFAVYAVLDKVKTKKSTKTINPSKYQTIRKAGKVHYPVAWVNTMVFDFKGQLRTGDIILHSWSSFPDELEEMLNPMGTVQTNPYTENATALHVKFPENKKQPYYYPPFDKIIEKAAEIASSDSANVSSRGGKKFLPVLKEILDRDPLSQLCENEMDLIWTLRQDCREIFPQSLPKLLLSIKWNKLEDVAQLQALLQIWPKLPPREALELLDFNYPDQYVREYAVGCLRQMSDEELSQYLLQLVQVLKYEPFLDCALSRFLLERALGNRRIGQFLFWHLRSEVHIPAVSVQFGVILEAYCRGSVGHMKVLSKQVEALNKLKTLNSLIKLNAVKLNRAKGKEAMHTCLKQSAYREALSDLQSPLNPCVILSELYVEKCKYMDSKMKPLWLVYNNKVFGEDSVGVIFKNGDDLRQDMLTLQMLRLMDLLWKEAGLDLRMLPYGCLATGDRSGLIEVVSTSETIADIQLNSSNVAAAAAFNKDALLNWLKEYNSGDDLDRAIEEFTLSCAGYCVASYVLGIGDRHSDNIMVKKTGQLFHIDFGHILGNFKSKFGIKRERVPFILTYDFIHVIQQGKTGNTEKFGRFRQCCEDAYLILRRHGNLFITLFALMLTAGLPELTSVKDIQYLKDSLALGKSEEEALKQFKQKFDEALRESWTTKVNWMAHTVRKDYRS
Chain of class I PI3K isoform β (P27986 whole entry partner, canonical isoform): as the sequence (P27986 whole entry partner, canonical isoform) above

SMILES: COc1ccc(Cl)c(Nc2nc3ccccc3nc2NS(=O)(=O)c2cccc(NC(=O)C(C)(C)N)c2)c1 [Compound A, N-(3-{[(3-{[2-chloro-5-(methoxy)phenyl]amino}quinoxalin-2-yl)amino]sulfonyl}phenyl)-2-methylalaninamide]
- phosphorylation of downstream effectors of PI3K [1]: inhibited phosphorylation of downstream effectors of PI3K
- tumor growth (xenograft tumor): inhibited tumor growth
- phosphorylation of downstream targets of PI3K, including pAKT and pEBP1 [2]: inhibits phosphorylation
- grade 3-4 thrombocytopenia ([3]; 1/15 patients, oral daily continuous dosing): 6.7%
- hyperglycemia, grade 1-2 event ([3]; 1 of 15 patients): 6.7%
- hyperglycemia, grade 3-4 event ([3]; 1 of 15 patients): 6.7%
- grade 3-4 neutropenia ([3]; 4/15 patients, oral daily continuous dosing): 26.7%
- tolerability in patients with lymphoma and CLL ([3]; in vivo): well-tolerated
- Patients requiring dose modification due to toxicity: Hyperglycemia ([3]; nineteen subjects): 1 (5) n (%)
- Patients requiring dose modification due to toxicity: Neutropenia ([3]; nineteen subjects): 2 (11) n (%)
- Patients requiring dose modification due to toxicity: Rash ([3]; nineteen subjects): 1 (5) n (%)
- Abdominal Pain, All Adverse Events, All Grades [3, 7]: 4 (21) n (%)
- Abdominal Pain, All Adverse Events, Grade ≥3 [3, 7]: 1 (5) n (%)
- Abdominal Pain, Related Adverse Events, All Grades [3, 7]: 2 (11) n (%)
- Abdominal Pain, Related Adverse Events, Grade ≥3 [3, 7]: 0 n (%)
- Anemia, All Adverse Events, All Grades [3, 7]: 4 (21) n (%)
- Anemia, All Adverse Events, Grade ≥3 [3, 7]: 3 (16) n (%)
- Anemia, Related Adverse Events, All Grades [3, 7]: 1 (5) n (%)
- Anemia, Related Adverse Events, Grade ≥3 [3, 7]: 0 n (%)
- Cough, All Adverse Events, All Grades [3, 7]: 6 (32) n (%)
- Cough, All Adverse Events, Grade ≥3 [3, 7]: 1 (5) n (%)
- Cough, Related Adverse Events, All Grades [3, 7]: 0 n (%)
- Cough, Related Adverse Events, Grade ≥3 [3, 7]: 0 n (%)
- Diarrhea, All Adverse Events, All Grades [3, 7]: 12 (63) n (%)
- Diarrhea, All Adverse Events, Grade ≥3 [3, 7]: 1 (5) n (%)
- Diarrhea, Related Adverse Events, All Grades [3, 7]: 7 (37) n (%)
- Diarrhea, Related Adverse Events, Grade ≥3 [3, 7]: 1 (5) n (%)
- Dyspnea, All Adverse Events, All Grades [3, 7]: 4 (21) n (%)
- Dyspnea, All Adverse Events, Grade ≥3 [3, 7]: 1 (5) n (%)
- Dyspnea, Related Adverse Events, All Grades [3, 7]: 0 n (%)
- Dyspnea, Related Adverse Events, Grade ≥3 [3, 7]: 0 n (%)
- Fatigue, All Adverse Events, All Grades [3, 7]: 5 (26) n (%)
- Fatigue, All Adverse Events, Grade ≥3 [3, 7]: 0 n (%)
- Fatigue, Related Adverse Events, All Grades [3, 7]: 0 n (%)
- Fatigue, Related Adverse Events, Grade ≥3 [3, 7]: 0 n (%)
- Hyperglycemia, All Adverse Events, All Grades [3, 7]: 4 (21) n (%)
- Hyperglycemia, All Adverse Events, Grade ≥3 [3, 7]: 1 (5) n (%)
- Hyperglycemia, Related Adverse Events, All Grades [3, 7]: 4 (21) n (%)
- Hyperglycemia, Related Adverse Events, Grade ≥3 [3, 7]: 1 (5) n (%)
- Neutropenia, All Adverse Events, All Grades [3, 7]: 5 (26) n (%)
- Neutropenia, All Adverse Events, Grade ≥3 [3, 7]: 5 (26) n (%)
- Neutropenia, Related Adverse Events, All Grades [3, 7]: 4 (21) n (%)
- Neutropenia, Related Adverse Events, Grade ≥3 [3, 7]: 4 (21) n (%)
- Pruritus, All Adverse Events, All Grades [3, 7]: 4 (21) n (%)
- Pruritus, All Adverse Events, Grade ≥3 [3, 7]: 1 (5) n (%)
- Pruritus, Related Adverse Events, All Grades [3, 7]: 2 (11) n (%)
- Pruritus, Related Adverse Events, Grade ≥3 [3, 7]: 0 n (%)
- Pyrexia, All Adverse Events, All Grades [3, 7]: 5 (26) n (%)
- Pyrexia, All Adverse Events, Grade ≥3 [3, 7]: 1 (5) n (%)
- Pyrexia, Related Adverse Events, All Grades [3, 7]: 1 (5) n (%)
- Pyrexia, Related Adverse Events, Grade ≥3 [3, 7]: 0 n (%)
- Rash, All Adverse Events, All Grades [3, 7]: 4 (21) n (%)
- Rash, All Adverse Events, Grade ≥3 [3, 7]: 1 (5) n (%)
- Rash, Related Adverse Events, All Grades [3, 7]: 3 (16) n (%)
- Rash, Related Adverse Events, Grade ≥3 [3, 7]: 1 (5) n (%)
- Patients requiring dose modification due to toxicity ([3]; nineteen subjects, total): 7 (37) n (%)
- Patients requiring dose modification due to toxicity: More than 1 event in the same patient ([3]; nineteen subjects, diarrhea, fever/pneumonia, fever/pneumonia/sepsis/ileus/fluid overload): 1 (5) n (%)
- Patients requiring dose modification due to toxicity: Fever/hypotension [3, 8]: 1 (5) n (%)
- Patients requiring dose modification due to toxicity: Respiratory infection [3, 8]: 1 (5) n (%)
- best response Stable Disease, number of patients ([4]; CLL/SLL, n = 5 evaluated, 600 mg capsule once daily, after cycle 2): 5^b
- best response Stable Disease, number of patients ([4]; Follicular Lymphoma, n = 2 evaluated, 600 mg capsule once daily): 2^
- best response Progressive Disease, number of patients [4, 9]: 1
- best response Stable Disease, number of patients [4, 9]: 1^e
- best response Stable Disease, number of patients ([4]; Transformed Lymphoma, n = 1 evaluated): 1^d
- best response Complete Response, number of patients ([4]; Waldenstrom's Macroglobulinemia, n = 1 evaluated, complete response at cycle 14): 1^c
- activity in patients ([4]; in vivo): active in CLL and low-grade lymphomas
- geometric mean accumulation (AUC) on day 28 [5]: 7.6 fold
- mean (CV %) accumulation (AUC) on day 28 ([5]; CV 88.1%): approximately 11.2 fold
- effect as monotherapy (PI3K pathway; human, in vivo): primarily anti-proliferative, not pro-apoptotic
- PI3K pathway activation in surrogate tissue (PBMC, hair follicle, skin) and tumor tissue (PI3K pathway; once daily, patients with solid tumors): inhibited PI3K pathway activation
- PI3K and ERK pathway inhibition (PI3K pathway; well-tolerated doses): robust PI3K and ERK pathway inhibition
- maximum tolerated dose (MTD) ([6]; capsule, once daily (QD), 21/7 or continuous daily dosing schedule): 600 mg
- dose-limiting toxicities ([6]; human, in vivo): Grade 3 rash and Grade 3 hypersensitivity
- IC50 (class I PI3K isoform β): 383 nM
- IC50 (class I PI3K isoform γ): 36 nM
- IC50 (class I PI3K isoform δ): 23 nM
- IC50 (mTOR): > 15000 nM
